According to US11357752B2, “Carolacton and derivatives thereof for use in the treatment of cell proliferation disorders” (Helmholtz-Zentrum für Infektionsforschung GmbH, priority 2017, dated 2022):
Where two headings read alike, the source gives them in different places.

How the values were obtained:
S. pneumoniae TIGR4Δfhs = assay: Planktonic growth of S. pneumoniae fhs deletion mutant; type: cell-based, Streptococcus pneumoniae; conditions: S. pneumoniae fhs inactivated mutant; 0.25 μg/ml carolacton
Procedure: FIG. 4. Carolacton effects on S. pneumoniae TIGR4 and foID deletion, complementation and fhs deletion mutants. (A) Growth inhibition of planktonic cultures of S. pneumoniae TIGR4 wild type, ΔfoID deletion mutant and controls in THBY. Carolacton (caro) (0.25 μg/ml) was added at an optical density of 600 nm (OD600) of 0.15. (B) Planktonic growth of the S. pneumoniae TIGR4 wild type and the TIGR4Δfhs mutant in THBY. Cultures were treated with 0.25 μg/ml carolacton (OD600 0.15).
The Streptococcus mutans and Streptococcus pneumoniae strains used herein are UA159 and TIGR4, respectively. S. pneumoniae TIGR4 was routinely grown on Columbia blood agar plates (BD Biosciences) as described previously (Donner et. al, 2016). Streptococci were grown in Todd-Hewitt-Broth +1% (w/v) yeast extract (THBY, BD Biosciences)) at 37° C. and 5% CO2. The E. coli ToIC strain used in carolacton-resistant mutant development is an antibiotic-sensitive E. coli strain without its outer membrane channel protein ToIC. E. coli DH1OB or DH5α strain was used for gene cloning and E. coli BL21 (DE3) was used for protein expression. The protein expression plasmid pHis-TEV (Liu et al., 2009) was used for cloning and expression of all different foID gene orthologues studied herein.

HUVEC cells = assay: CellTiter-Glo luminescent cell viability assay; type: cell-based, human; conditions: for IC50: Homo sapiens, HUVEC
Procedure: (§1) To evaluate the effects of one compound on 7 cell lines with a CellTiter-Glo Luminescent Cell Viability Assay. Cells were treated with compounds for 72 hours at 37° C./5% CO2 incubator. Compound stock concentration was 20 mM, concentrations to be assayed 100\50\15\10.5\0.1\0.05\0.01\0.005 pM. • i) Materials and Reagents
(§2) a) Cells in log-phase are collected and counted. Cell suspensions are added to each well of 384-w plate at a suitable density. The margin wells are filled with PBS.
(§3) b) Test compound at various concentrations are added in duplicates
(§4) c) The cells were incubated for 72 h in 370/5% CO 2 incubator.
(§5) d) After incubation, CellTiter-Glo® Reagent is added to each test well and shack for 2 minutes on an orbital shaker.
(§6) e) The plates are shortly centrifuged at 90×g for 30 s and incubated at room temperature for additional 10 minutes to stabilize the luminescent signal.
(§7) f) Luminescence signals are detected on PHERAstar Plus.
(§8) g) Data is collected in Microsoft excel forms and analyzed with GraphPad Prism v.6 software. • iii) Data analysis
(§9) The potential effect of the testing compounds an cell proliferation was calculated by the formula below: Inhibition %=[…]
(§10) Since hsMTHFD2 is expressed in human mitochondria and overexpressed in many tumor cells we next aimed to evaluate its potential as an anticancer compound. To this end IC50 values for carolacton were determined for six different cancer cell lines as well as HUVEC cells as primary non-tumor cells. The CellTiter-Glo luminescent cell viability assay (Promega) was used on triplicate cultures grown for three days. Each cell line was tested in three independent experiments (performed at different times and by different experimentators): First, using natural carolacton purified from culture supernatants of Sorangium cellulosum and solved in methanol; second, using carolacton synthesized de novo according to Schmidt et al. 2012 and solved in DMSO; and third, using synthetic carolacton synthesized de novo according to Schmidt et al. 2012 and solved in methanol.

NCI-N87 cells = assay: CellTiter-Glo luminescent cell viability assay; type: cell-based, human; conditions: for IC50: Homo sapiens, NCI-N87, 72 h, 72 h, read-out: IC50 inhibition of cancer cell proliferation
Procedure: as §1, §2, §3, §4, §5, §6, §7, §8, §9, §10

U-937 cells = assay: CellTiter-Glo luminescent cell viability assay; type: cell-based, human; conditions: for IC50: Homo sapiens
Procedure: as §1, §2, §3, §4, §5, §6, §7, §8, §9, §10

spFoID = biological target: T1, spFoID (Streptococcus pneumoniae serotype 4, UniProt Q97RI9); assay: Surface plasmon resonance assay; type: binding, S. pneumoniae; conditions: read-out: KD (SPR)
T1 construct: made in house; host or cells: E. coli BL21 (DE3)
T1 sequence (Q97RI9 whole entry): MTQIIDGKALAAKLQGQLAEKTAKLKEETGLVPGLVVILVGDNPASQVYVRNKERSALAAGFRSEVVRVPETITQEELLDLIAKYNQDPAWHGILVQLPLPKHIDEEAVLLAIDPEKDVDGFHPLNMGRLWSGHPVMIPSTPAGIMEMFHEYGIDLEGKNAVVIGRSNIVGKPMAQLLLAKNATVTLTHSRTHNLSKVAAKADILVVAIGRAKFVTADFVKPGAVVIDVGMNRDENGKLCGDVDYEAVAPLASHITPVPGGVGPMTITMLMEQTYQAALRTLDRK
Procedure: All surface plasmon resonance (SPR) experiments described in this study were performed on a Biacore X100 system. Different FoIDs with or without His-tag were coupled on CM5 sensor chips (GE Healthcare) by the amine coupling method using a kit from GE Healthcare Life Sciences (Freiburg, Germany). A pH scouting process was performed before protein immobilization to test the most appropriate buffer and the protein concentration for protein coupling. Finally, 20 μg/mL of ecFoID in 10 mM maleate buffer (pH 6.8), 30 μg/mL of ecFoID Q98H in 10 mM maleate buffer (pH 6.3), 40 μg/mL of ecFoID K54N in 10 mM maleate buffer (pH 5.8), 20 μg/mL of spFoID in 10 mM maleate buffer (pH 6.0) and 15 μg/mL of MTHFD2 (His-tag cleaved) in 10 mM maleate buffer (pH 6.8) were used for coupling. In the protein immobilization procedure, the contact time was calculated based on the pH scouting results to achieve -3000-5000 relative resonance units (RU). The buffer used in the SPR assays was 1×HBS-P buffer (10 mM HEPES pH 7.4, 150 mM NaCl, 0.05% Tween 20). The 1 mM stock solution of carolacton was prepared in 1×HBS-P buffer and diluted to different concentration ranges by two-fold serial dilution. In the SPR assay, the association time was 180 s and the dissociation time was 600 s. Data analysis was performed using the Biacore evaluation software. […]

[1] = HUVEC (primary), natural C, methanol
[2] = HUVEC (primary), synthetic C, DMSO
[3] = HUVEC (primary), synthetic C, methanol

## CO[C@H](CC(=O)O)[C@@H](C)C(=O)[C@H](C)/C=C(\C)[C@H]1OC(=O)[C@H](O)[C@H](O)/C=C/[C@H](C)CCC[C@@H]1C [Carolacton, carolacton]
S. pneumoniae TIGR4Δfhs
  inhibition of planktonic growth: complete inhibition
HUVEC cells; [1]
  Bottom: −4.548
  Top: =100.0
HUVEC cells; [2]
  Bottom: −7.188
  Top: =100.0
HUVEC cells; [3]
  Bottom: −3.312
  Top: =100.0
HUVEC cells; 72 h, HUVEC (primary), natural C, methanol, 72 h, read-out: IC50 inhibition of cell proliferation
  IC50: 48300 nM
HUVEC cells; 72 h, HUVEC (primary), synthetic C, DMSO, 72 h, read-out: IC50 inhibition of cell proliferation
  IC50: 103000 nM
HUVEC cells; HUVEC cells, read-out: IC50
  IC50: 46400 nM
NCI-N87 cells; natural C, methanol
  IC50: 225 nM
  Bottom: 11.93
  Top: 41.34
NCI-N87 cells; synthetic C, DMSO
  IC50: > 100000 nM
NCI-N87 cells; synthetic C, methanol
  IC50: 352 nM
  Bottom: 6.683
  Top: 23.87
U-937 cells; U-937, 72 h, U-937, natural C, methanol, 72 h, read-out: IC50 inhibition of cancer cell proliferation
  IC50: 10.7 nM
U-937 cells; U-937, 72 h, U-937, synthetic C, DMSO, 72 h, read-out: IC50 inhibition of cancer cell proliferation
  IC50: 44.7 nM
U-937 cells; U-937, 72 h, U-937, synthetic C, methanol, 72 h, read-out: IC50 inhibition of cancer cell proliferation
  IC50: 6.84 nM
U-937 cells; U-937, Lymphoma cells (U-937), read-out: IC50 inhibition of proliferation
  IC50: 6.8 to 44.7 nM
U-937 cells; U-937, natural C, methanol
  Bottom: =0.0
  Top: 67.6
U-937 cells; U-937, synthetic C, DMSO
  Bottom: 1.808
  Top: 61.59
U-937 cells; U-937, synthetic C, methanol
  Bottom: 0
  Top: 60.9
spFoID
  Kd: 27 nM
